Results on 13 compounds are retold here after patent publication US5449673A, “10,11-dihydro-10-(3-substituted-1-oxo-2-propyl, propenyl or propynyl)dibenz[b,f][1,4] oxazepine prostaglandin antagonists” (G. D. Searle & Co., priority 1994, dated 1995).

In general, ED50 refers to the dose that gives a 50% effect, or the effect in half of the subjects.

The test system of one experiment is mice. As to the kind of experiment: PBQ Writhing Assay (analgesia in mice). Format: in vivo, mouse (Charles River male albino mice). The following applies: for responders at 30 mg/kg: 0.5 h, 30 mg per kg, 30 min before PBQ, fraction out of 9 or 10 mice; for rank order of potency in the Writhing Assay: more potent compounds tested. An excerpt:
The Writhing Assay is one of the most widely-used experimental procedures for measuring the analgesic activity of different narcotic and nonnarcotic analgesic agents, and involves the continuous, chemically-induced pain of visceral origin to an animal, such as a mouse or rat. [Gyires et al., Arch. int. Pharmacodyn, 267, 131-140 (1984); C. Vander Wende et al., Fed. Proc., 15, 494 (1956); Koster et al., Fed. Proc., 18, 412 (1959); and Witken et al., J. Pharmacol. exp. Ther., 133, 400-408 (1961).] Chemicals which may be used to induce this pain include phenylbenzoquinone (PBQ) and acetic acid. As a result of the chemical irritation to the animal, a characteristic stretching and writhing of the animal (dorsiflexion of the animal's back, extension of its hindlimbs and the strong contraction of its abdominal musculature) will generally occur. […] Drugs which reduce the number of writhes of the animal appear to restore the normal nociceptive threshold of the animal.
Charles River male albino mice, weighing 20 to 30 grams were used in this assay.
Thirty minutes after subcutaneous or intragastric administration to ten mice of 30 mg per kilogram of body weight of a compound of the present invention ("test compound"), […] per 10 g of body weight of a 0.025% w/v solution of PBQ was injected intraperitoneally into each mouse. Ten mice which were given saline in place of a test compound of the invention were used as a control group.
Five minutes later, each mouse was individually placed into a glass beaker for observation, and the number of writhes occurring during the following tenminute period was counted.
A test compound was considered to have produced analgesia in a mouse if, in accordance with the conditions set forth above, and under the test criteria employed for this assay, after the administration of 30 mg per kilogram of body weight of a compound of the present invention to the mouse, the number of writhes elicited by a mouse injected with PBQ was equal to, or less than, one-half the median number of writhes recorded for the saline-treated control group of mice that day, as described by Taber in "Predictive Value of Analgesic Assays in Mice and Rats," Advances in Biochemical Psychopharmacology, 8, 191 (1974).
The standard initial screening dose of a test compound employed in this assay was […] for both routes of administration. If this initial screening dose of the test compound produced analgesia in seven of ten mice, then the effect of additional doses of the test compound on the writhing response was evaluated, and then the ED50 dose was generally calculated. (The slopes of the dose-response curves for all test compounds analyzed were compared as described by Taltarida and Murray, Manual of Pharmacologic Calculations, Page 11 (Springer Verlag, New York, 1981)).
The results for the particular compounds of the present invention analyzed in this assay, and discussed in the examples identified below which correspond thereto, are presented in Table I hereinbelow under the heading "PBQ WRITHING ASSAY". The fractions indicate the number of mice out of 9 or 10 in which the initial screening dose of a test compound produced analgesia. The numbers which are not fractions represent ED50 doses.
On the technique in general: In writhing tests, fewer writhes than in controls are read as antinociception.

Experiment [1] concerns the target T1, prostaglandin E2-induced contractions of segments of guinea pig ileum (Cavia porcellus, UniProt A0A286XHJ6).
T1 construct: Segments of ileum about 2 cm long were then cut and mounted in a 10-mL tissue bath; from tissue; host or cells: ileum segments of male albino guinea pigs
T1 sequence (A0A286XHJ6 1-405): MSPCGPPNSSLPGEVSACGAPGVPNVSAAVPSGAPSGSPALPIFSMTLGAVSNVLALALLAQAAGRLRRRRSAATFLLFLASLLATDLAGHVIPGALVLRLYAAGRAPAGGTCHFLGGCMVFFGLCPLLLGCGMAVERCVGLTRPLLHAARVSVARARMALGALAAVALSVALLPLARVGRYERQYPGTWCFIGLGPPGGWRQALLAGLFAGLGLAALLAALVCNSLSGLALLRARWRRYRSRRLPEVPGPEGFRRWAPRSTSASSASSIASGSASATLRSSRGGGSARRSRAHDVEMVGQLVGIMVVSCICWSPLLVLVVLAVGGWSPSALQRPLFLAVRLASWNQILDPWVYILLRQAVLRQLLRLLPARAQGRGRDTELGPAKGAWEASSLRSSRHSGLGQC
As to the kind of experiment: Prostaglandin (PGE) Antagonism Assay, inhibition of prostaglandin E2-induced contractions of guinea pig ileum segments. To be noted: 37° C., Schild plot, read-out: PGE ANTAGONISM IN GUINEA PIG ILEUM (pA2) (converted). Also on record: species or system guinea pig (male albino). As to the method: In order to determine the effectiveness of several of the compounds of the present invention ("test compounds") as prostaglandin E2 antagonists,a prostaglandin antagonism assay was conducted, as described below, to determine the ability of these compounds to inhibit prostaglandin E2 -induced contractions of segments of guinea pig ileum.
Male albino guinea pigs weighing 200 to 500 grams were sacrificed by cervical dislocation.
The ileums were then quickly removed from the guinea pigs and placed in a modified Tyrode solution, a solution which is known to those of skill in the art, containing one-half of the usual amount of magnesium ions.
Segments of ileum about 2 cm long were then cut and mounted in a 10-mL tissue bath containing the modified Tyrode solution. The solution was maintained at 37° C. and aerated with a gaseous mixture of 95% oxygen and 5% carbon dioxide.
Submaximal contractions of the ileum segments were then generated by injecting prostaglandin E2 into the bath, and detected isotonically. Data for a control prostaglandin E2 dose response curve plotting concentration of prostaglandin E2 versus number of contractions generated was then obtained by experimentally adjusting the dose of the prostaglandin E2 being injected into the tissue bath, in a manner known by those of skill in the art.
Solutions or suspensions containing an initial amount of a test compound in modified Tyrode solution ("test solutions/suspensions") were then separately substituted for the tissue bath. Each test solution/suspension was then kept in constant contact with the ileum tissue, except for brief periods to drain the bath in preparation for rinsing with fresh test solution/suspension. Different doses of prostaglandin E2 were again injected into the test solutions/suspensions.
A second prostaglandin E2 dose response curve was then generated for PGE2 in the presence of a test compound.
A dose ratio of EC50 doses (that dose of a compound or drug which is necessary to elicit a 50% maximal biological response and, thus, which is necessary to elicit a 50% reduction in the contractions of %he guinea pig ileum segments in this assay) was then calculated from the results of each test in a manner known by those of skill in the art. […]
If the initial concentration of a test compound was determined to be "active," then varying concentrations of the test compound were then assayed.
The pA2 value (a statistical constant which is a common measure of expressing the potency of a particular drug as a competitive antagonist) was then calculated for each test compound by schild plot calculations, as described by H. O. Schild, "pA A New , Scale for the Measurement of Drug Antagonism, " Br. J. Pharmacol, 2, 189 (1947), according to the following mathematical formula: […]

For experiment [2], the system named is isolated smooth muscle preparations. The following applies: cited from earlier work.
The subject of experiment [3] is urethane-anesthetized rats. The following applies: cited from earlier work.
The mark [4] stands for this setting: Mus musculus, po, intragastric, mice, read-out: PBQ WRITHING ASSAY, No. Out of 10 (mice in which the initial screening dose produced analgesia), I.G. (converted).
Setting [5] is: Mus musculus, sc, subcutaneous, mice, read-out: PBQ WRITHING ASSAY, No. Out of 10 (mice in which the initial screening dose produced analgesia), S.C. (converted).

Structures can show the parent of a compound that is named as a salt. Where two headings read alike, the source gives them in different places.

With `CCCCC(C)(C/C=C\C(=O)N1Cc2ccccc2Oc2ccc(Cl)cc21)O[Si](C)(C)C` (centres unmarked) [Example 4, 8-chloro-10,11-dihydro-10-[5-methyl-1-oxo-5-[(trimethylsilyl)oxy]-2Z-nonenyl]-dibenz[b,f][1,4]oxazepine], the responders at 30 mg/kg in the experiment on mice (setting [4]) is 50%; with mice (setting [5]) it was 80%.

For the compound `CCCCC(C)(C/C=C/C(=O)N1Cc2ccccc2Oc2ccc(Cl)cc21)O[Si](C)(C)C` (centres unmarked) [Example 5, 8-chloro-10,11-dihydro-10-[5-methyl-1-oxo-5-[(trimethylsilyl)oxy]-2E-nonenyl]-dibenz[b,f][1,4]oxazepine], the values for the responders at 30 mg/kg in the experiment with mice (setting [4]) and with mice (setting [5]) were 30% and 60%, respectively.

Take `CCCCC(C)(O)C/C=C/C(=O)N1Cc2ccccc2Oc2ccc(Cl)cc21` (centres unmarked) [Example 6, 8-chloro-10,11-dihydro-10-(5-hydroxy-5-methyl-1-oxo-2E-nonenyl)dibenz[b,f][1,4]oxazepine]: the Kb in experiment [1] is 166 nM. The responders at 30 mg/kg with mice (setting [4]) and in the experiment on mice (setting [5]) was 40% each time.

Turning to `CCCCCC(C)(/C=C/C(=O)N1Cc2ccccc2Oc2ccc(Cl)cc21)O[Si](C)(C)C` (centres unmarked) [Example 8, 8-chloro-10,11-dihydro-10-[4-methyl-1-oxo-4-[(trimethylsilyl)oxy]-2E-nonenyl]dibenz-[b,f][1,4]oxazepine], the responders at 30 mg/kg in the experiment on mice (setting [4]) is 60%; in the experiment with mice (setting [5]), 40%.

With `CCCCCC(C)(O)/C=C/C(=O)N1Cc2ccccc2Oc2ccc(Cl)cc21` (centres unmarked) [Example 9, 8-chloro-10,11-dihydro-10-(4-hydroxy-4-methyl-1-oxo-2E-nonenyl)dibenz[b,f][1,4]oxazepine], the Kb in experiment [1] is 617 nM. Also, the responders at 30 mg/kg is 50% in the experiment with mice (setting [4]) and 90% in the experiment on mice (setting [5]).

Regarding `CCCCCC(O)/C=C/C(=O)N1Cc2ccccc2Oc2ccc(Cl)cc21` (centres unmarked) [Example 11], the Kb in experiment [1] was 214 nM. The responders at 30 mg/kg is 20% in the experiment with mice (setting [4]) and 30% with mice (setting [5]).

Take `CCCCCC(/C=C/C(=O)N1Cc2ccccc2Oc2ccc(Cl)cc21)OC(=O)CN` (centres unmarked) [Example 12, glycine, 1-[3-(8-chloro-10,11-dihydrodibenz-[b,f][1,4]oxazepin-10-yl)-3-oxo-1E-propenyl]-hexyl ester, monohydrochloride]: the figures for the responders at 30 mg/kg in the experiment with mice (setting [4]) and with mice (setting [5]) were 55.6% and 30%, respectively. In the experiment on mice, the “rank order of potency in the Writhing Assay” value is on record as “Example 17 > Example 9 > Example 4 > Example 8 > Example 5 > Example 12”.

On to `CCCCCC(=O)/C=C/C(=O)N1Cc2ccccc2Oc2ccc(Cl)cc21` [Example 13, 8-chloro-10,11-dihydro-10-(1,4-dioxo-2E-nonenyl)dibenz[b,f][1,4]oxazepin], for which the responders at 30 mg/kg with mice (setting [4]) was 10%; with mice (setting [5]), 22.2%.

For the compound `CCCCCC/C=C/C(=O)N1Cc2ccccc2Oc2ccc(Cl)cc21` [Example 14, 8-chloro-10,11-dihydro-10-(1-oxo-2E-nonenyl)dibenz[b,f][1,4]oxazepine], the responders at 30 mg/kg in the experiment with mice (setting [4]) and in the experiment on mice (setting [5]) was 10% throughout.

With `CCCCCC(O)C#CC(=O)N1Cc2ccccc2Oc2ccc(Cl)cc21` (centres unmarked) [Example 15, 8-chloro-10,11-dihydro-10-(4-hydroxy-1-oxo-2-nonynyl)dibenz[b,f][1,4]oxazepine], the responders at 30 mg/kg in the experiment with mice (setting [4]) is 10%; in the experiment on mice (setting [5]), 30%.

On to `O=C(CCC(=O)N1Cc2ccccc2Oc2ccc(Cl)cc21)CCc1ccncc1` [Example 17, 8-chloro-10-[1,4-dioxo-6-(4-pyridinyl)hexyl]-10,11-dihydrodibenz[b,f][1,4]-oxazepine, monohydrochloride], for which the Kb in experiment [1] was 102 nM. The 50% effective dose (ED50) in the experiment on mice (Mus musculus, po, intragastric, mice, ED50 dose, read-out: PBQ WRITHING ASSAY, ED50, I.G.) is 5.4 mg/kg. For the same compound, the “most potent compound tested in the Writhing Assay” value in the experiment with mice (in words) is listed as “the most potent compound of the invention tested in this assay”. For the same compound, the “rank order of potency in the Writhing Assay” value in the experiment on mice is listed as “Example 17 > Example 9 > Example 4 > Example 8 > Example 5 > Example 12”.

As to `O=C(Cc1ccccc1)NNC(=O)N1Cc2ccccc2Oc2ccc(Cl)cc21` [SC-18637], the “inhibition of the stimulant actions of prostaglandins” value in experiment [2] is “inhibit the stimulant actions of prostaglandins on isolated smooth muscle preparations”.

On to `CC(=O)NNC(=O)N1Cc2ccccc2Oc2ccc(Cl)cc21` [SC-19220], for which the “inhibition of the stimulant actions of prostaglandins” value in experiment [2] is “inhibit the stimulant actions of prostaglandins on isolated smooth muscle preparations”. Also, in experiment [3], the bladder capacity result is listed as “increased the bladder capacity” and the “voiding efficiency of micturition” value is recorded as “reduced the voiding efficiency of micturition”.
